The source of these data is patent US7273848B2, “Apolipoprotein A-I agonists and their use to treat dyslipidemic disorders” (priority 1997, dated 2007).

Data set [1] addresses T1, LCAT (purified from human plasma) (Homo sapiens, UniProt P04180).
T1 construct: from tissue; host or cells: human plasma
T1 sequence (P04180 25-440): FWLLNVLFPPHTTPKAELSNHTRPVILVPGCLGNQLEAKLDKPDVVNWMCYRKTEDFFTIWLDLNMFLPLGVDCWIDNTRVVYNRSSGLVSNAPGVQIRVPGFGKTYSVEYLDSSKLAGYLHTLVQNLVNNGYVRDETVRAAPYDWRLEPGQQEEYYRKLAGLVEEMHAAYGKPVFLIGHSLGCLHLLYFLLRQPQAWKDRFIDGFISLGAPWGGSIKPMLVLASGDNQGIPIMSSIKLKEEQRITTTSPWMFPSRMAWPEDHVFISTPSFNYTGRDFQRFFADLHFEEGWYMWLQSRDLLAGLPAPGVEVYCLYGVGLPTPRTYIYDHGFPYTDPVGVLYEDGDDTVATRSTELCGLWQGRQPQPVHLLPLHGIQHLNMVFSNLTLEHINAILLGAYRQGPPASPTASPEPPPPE
The data set can be described thus: LCAT activation assay. Format: biochemical. The settings on record: LCAT activation as compared with native human ApoA-I (= 100%), equivalent masses. The method, boiled down:
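Substrate SUVs of EPC or POPC with 14C-cholesterol (20:1 molar ratio), in 10 mM Tris, 0.14 M NaCl, 1 mM EDTA, pH 7.4, were preincubated with peptide or equal mass of plasma ApoA-I. Reaction started with human plasma LCAT; activation was measured as cholesterol-to-ester conversion relative to ApoA-I (100%).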

Data set [2] is described as follows: Circular dichroism helicity determination. Type of data set: physicochemical. Particulars: percent helicity; for He (%) TFE: 5 μM peptide, 90% vol TFE; for He (%) TFE / He (%) SUVs: 37° C.; for He (%) free: unbound peptide 5 μM in 5 mM phosphate buffer, pH 7.4, 37° C.; for He (%) mics: peptide-micelle complexes, Ri=100, 37° C.; for He (%) SUVs: peptide-SUV complexes (20:1 EPC:Chol., Ri=30 and Ri=50). The method in brief:
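Far-UV CD (190–260 nm) at 37° C on 5 μM peptide in 5 mM phosphate pH 7.4, free, with EPC:Chol 20:1 SUVs (Ri 30 or 50), lysophosphatidylcholine micelles (Ri 100) or 90% TFE. Spectra converted to molar ellipticity per residue; helicity from 222 nm ellipticity or CONTIN fitting to reference spectra, ±5%.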
In general terms: Circular dichroism is the unequal absorption of left and right circularly polarised light.

Non-standard residues stand in square brackets, D forms with d. Residues, ends and D or L forms follow the SMILES beside them. Aib = CC(C)(N)C(=O)O

With `CC(C)C[C@H](NC(=O)[C@H](C)NC(=O)[C@H](CCC(=O)O)NC(=O)[C@H](CC(C)C)NC(=O)C(C)(C)NC(=O)[C@H](CCC(=O)O)NC(=O)[C@H](CC(N)=O)NC(=O)[C@H](CC(C)C)NC(=O)[C@H](CC(C)C)NC(=O)[C@H](CCC(=O)O)NC(=O)[C@H](CCCNC(=N)N)NC(=O)[C@H](Cc1ccccc1)NC(=O)[C@H](CCC(=O)O)NC(=O)[C@H](CC(=O)O)NC(=O)[C@H](CC(C)C)NC(=O)[C@@H](NC(=O)[C@@H]1CCCN1)C(C)C)C(=O)N[C@@H](CCCCN)C(=O)N[C@@H](CCC(N)=O)C(=O)N[C@@H](CCCCN)C(=O)N[C@@H](CC(C)C)C(=O)N[C@@H](CCCCN)C(=O)O` [compound 91, PVLDEFRELLNEXLEALKQKLK] (H-PVLDEFRELLNE[Aib]LEALKQKLK-OH), the “ACTIVITY (%) LCAT” value in data set [1] turned out to be 6%. For the same molecule, in data set [2], the “He (%) TFE” value is given as 100%, the “He (%) free” value is 43% and the “He (%) mics” value is on record as 100%.
`CC(C)C[C@@H](NC(=O)[C@@H](C)NC(=O)[C@@H](CCC(=O)O)NC(=O)[C@@H](CC(C)C)NC(=O)C(C)(C)NC(=O)[C@@H](CCC(=O)O)NC(=O)[C@@H](CC(N)=O)NC(=O)[C@@H](CC(C)C)NC(=O)[C@@H](CC(C)C)NC(=O)[C@@H](CCC(=O)O)NC(=O)[C@@H](CCCNC(=N)N)NC(=O)[C@@H](Cc1ccccc1)NC(=O)[C@@H](CC(C)C)NC(=O)[C@@H](CC(=O)O)NC(=O)[C@@H](CC(C)C)NC(=O)[C@H](NC(=O)[C@H]1CCCN1)C(C)C)C(=O)N[C@H](CCCCN)C(=O)N[C@H](CCC(N)=O)C(=O)N[C@H](CCCCN)C(=O)N[C@H](CC(C)C)C(=O)N[C@H](CCCCN)C(=O)O` [compound 96, pvldlfrellneXlealkqklk] (H-[dP][dV][dL][dD][dL][dF][dR][dE][dL][dL][dN][dE][Aib][dL][dE][dA][dL][dK][dQ][dK][dL][dK]-OH): the “ACTIVITY (%) LCAT” value in data set [1] is on record as 5%. Moreover, in data set [2], the “He (%) TFE” value stood at 81%, the “He (%) free” value is 52%, the “He (%) SUVs” value stood at 63% and the “He (%) mics” value came out at 85%.
In the same order, the values of `CC(C)C[C@H](NC(=O)[C@H](CCCCN)NC(=O)[C@H](CCC(N)=O)NC(=O)[C@H](CCCCN)NC(=O)[C@H](CC(C)C)NC(=O)[C@@H](N)CCCCN)C(=O)N[C@@H](C)C(=O)N[C@@H](CCC(=O)O)C(=O)N[C@@H](CC(C)C)C(=O)N[C@@H](CC(C)C)C(=O)N[C@@H](CCC(=O)O)C(=O)N[C@@H](CC(N)=O)C(=O)N[C@@H](CC(C)C)C(=O)N[C@@H](CC(C)C)C(=O)N[C@@H](CCC(=O)O)C(=O)N[C@@H](CCCNC(=N)N)C(=O)N[C@@H](Cc1ccccc1)C(=O)N[C@@H](CC(C)C)C(=O)N[C@@H](CC(=O)O)C(=O)N[C@@H](CC(C)C)C(=O)N[C@H](C(=O)N1CCC[C@H]1C(=O)O)C(C)C` [compound 99] are 2%, 80%, 72%, 80% and 88%.
Turning to `CC(C)C[C@@H](NC(=O)[C@@H](C)NC(=O)[C@@H](CCC(=O)O)NC(=O)[C@@H](CC(C)C)NC(=O)[C@@H](CC(C)C)NC(=O)[C@@H](CCC(=O)O)NC(=O)[C@@H](CC(N)=O)NC(=O)[C@@H](CC(C)C)NC(=O)[C@@H](CC(C)C)NC(=O)[C@@H](CCC(=O)O)NC(=O)[C@@H](CCCNC(=N)N)NC(=O)[C@@H](Cc1ccccc1)NC(=O)[C@@H](CC(C)C)NC(=O)[C@@H](CC(=O)O)NC(=O)[C@@H](CC(C)C)NC(=O)[C@H](NC(=O)[C@H]1CCCN1)C(C)C)C(=O)N[C@H](CCCCN)C(=O)N[C@H](CCC(N)=O)C(=O)N[C@H](CCCCN)C(=O)N[C@H](CC(C)C)C(=O)N[C@H](CCCCN)C(=O)O` [compound 100, pvldlfrellnellealkqklk], in data set [1], the “ACTIVITY (%) LCAT” value is listed as 2%. In data set [2], the “He (%) TFE” value was found to be 98%, the “He (%) free” value was determined as 83% and the “He (%) mics” value was 92%.
